Values quoted from earlier work, collected in US8242056B2, “Agriculture actives delivery composition comprising boron and persulfate ion-crosslinked polyvinyl alcohol microcapsules and method of use thereof” (Appleton Papers Inc., priority 2008, dated 2012).
Like-named read-outs stand apart in the source and are kept apart here.

What was measured:
[1] = half ionized and half un-ionized at its pKa

Q: For `COc1cc(OC)nc(NC(=O)NS(=O)(=O)c2ncccc2C(=O)N(C)C)n1` [nicosulfuron], which pKa [1] is on record?
A: 4.3

Q: And the Water solubility (pH5)?
A: 360 ppm

Q: What about the Water solubility (pH 6.9) of the same molecule?
A: 12,200 ppm

Q: And the Water solubility (pH 8.8)?
A: 29,200 ppm
